What was measured:
[1] = tested on: geranylgeranylated Rheb (Rheb-CSVL) in HEK 293 cells; assay: Rheb-CSVL mobility shift in HEK 293 cells; format: cell-based, human; conditions: 48 hours
Source text: Finally, we investigated in vivo effects of compounds 22 (also known as UC-22) and 23 (also known as UC-23). Human embryonic kidney (HEK) 293 cells were transfected with the Rheb-CSVL construct that expresses the geranylgeranylated form of the Rheb protein. Inhibition of the geranylgeranylation of this protein can be detected from a shift in its mobility on SDS polyacrylamide gel; the unprocessed form appears as a slowly migrating band.
Human embryonic kidney (HEK) 293 cells expressing Myc-HA tagged-Rheb-CVSL (upper) or Myc-HA tagged-Rheb-WT (lower) were treated with P3-E5 for 48 hours and then lysed. The cell lysates were run on a SDS polyacrylamide gel and immunoblotted using anti-Myc or anti-Actin antibody. The descriptors P and U indicate processed and unprocessed Rheb, respectively.
Human embryonic kidney (HEK) 293 cells expressing Myc-HA tagged-Rheb-CVSL (upper) or Myc-HA tagged-Rheb-WT (lower) were treated with mP5-H6a (also referred to as mP5-H6), or GGTI-298 for 48 hours and then lysed. Lysates were run on a SDS polyacrylamide gel and immunoblotted with anti-Myc or anti-Actin antibody.

MiaPaCa2 [2] = assay: Cell cycle distribution by flow cytometry, MiaPaCa2; format: cell-based, human; conditions: 10 μM, 48 hours
Method: (§1) Cell viability was determined by Cell Counting Kit-8 (CCK-8, Dojindo, Kumamoto, Japan) as described previously (31). Cell viability was calculated relative to the DMSO control. Cell cycle profile was analyzed by flow cytometry as described previously (32).

HPAC = HPAC cell growth inhibition; format: cell-based; conditions: Homo sapiens, 72 h, 3 days, CCK-8, vs DMSO, read-out: IC50, HPAC (Pancreas)
Method: as §1

MCF-7 cells = assay: Cell cycle profile by flow cytometry, MCF-7; format: cell-based, human; conditions: 48 hours, FIG. 37B
Method: MCF-7 cells were treated with P61-A6, P61-B6 or DMSO for 72 hours. Cell viability relative to the DMSO control (100% value) is plotted. (B) MCF-7 cells were treated with indicated concentrations (μM) of P61-A6, P61-B6 or DMSO for 48 hours. Cell cycle profiles were monitored by flow cytometry. Percentages of cells in each phase of the cell cycle are indicated by different shades. (C) NIH3T3 cells were transfected with p21^CIP1/WAF1-luciferase or empty vector. Cells were treated with P61-A6 or P61-B6 compound at indicated concentrations or with DMSO for 48 hours and luciferase assay was performed. Data represent the mean+/−S.D. of two measurements from two independent experiments. *, P<0.05; **, P<0.005 compared with the value for DMSO.
as §1

[3] = tested on: H-Ras farnesylation in NIH3T3 cells; assay: H-Ras mobility shift immunoblot in NIH3T3 cells; format: cell-based; conditions: 48 hours
Method: K562 cells were treated with modified compounds for 72 hours and then cell number was counted. IC50 values of cell viability relative to the DMSO were measured. […] Data represent the mean+/−S.D. of two measurements from two independent experiments. *, P<0.05 compared with the value for DMSO. […] Whole cell lysates from cells treated with DMSO, P5-H6, P61-A6, GGTI (GGTI-298), FTI (BMS-225975) or RabGGTI (P49-F6) for 48 hours were prepared and processed for immunoblot analysis using antibody against unprenylated form of Rap1 (C: upper panel), Total-Rap1 (C: middle panel), H-Ras (D: upper panel), Rab5b (E: upper panel) or actin (C, D, and E: lower panel). The immunoblots shown represent two independent experiments for each treatment.
This was examined by using a farnesylated protein H-Ras.

MiaPaCa2 [4] = assay: MiaPaCa2 cell growth inhibition; format: cell-based, human; conditions: Homo sapiens, MIA PaCa-2, 72 h; 3 days, CCK-8, vs DMSO; read-out: IC50, MiaPaCa2 (Pancreas)
Method: (§2) In FIG. 9-24 in vitro IC50 values for the GGTase I activity are reported. In Tables 7-15 in cell GI50 values for the growth inhibition of a variety of cancer cell lines (e.g., Jurkat, K562, MDA-MB-231, BT474, MCF7, MiaPaCa2, Aspc-1, Panc-1, Capan-2, CFpac-1, and MCF10a) are reported.
as §1

CFpac-1 = CFpac-1 cell growth inhibition; format: cell-based, human; conditions: Homo sapiens, CFPAC-1, 72 h; 3 days, CCK-8, vs DMSO; read-out: IC50, CFpac-1 (Pancreas)
Method: as §2, §1

PANC-1 xenograft tumor = PANC-1 xenograft tumor growth in SCID mice; format: in vivo; conditions: 1.16 mg/kg i.p., six times per week
Method: Xenograft tumor experiments have shown that GGTI's can inhibit PANC-1 tumor growth in mice. Seven SCID mice (six weeks old) received a subcutaneous implantation of 5 million PANC-1 cells. The mice were supplied with food and water for 14 days before treatment was started. The treatment group received 160 uM GGTI (p61A6) in 0.25 ml 0.9% NaCl while the control group received 0.25 ml 0.9% NaCl. Each dosage was injected 3 times per week. These dosage were designed to administer p61A6 at approximately 1.16 mg/kg of body weight. Also, since the mouse has about 2 ml blood, the final concentration of p61A6 in vivo was approximately 20 uM. The final DMSO concentration in the control group was approximately 0.8%.
Additional xenograft tumor experiments have shown that GGTI's can inhibit PANC-1 tumor growth in mice and reduce the size of the tumor. Six SCID mice (six weeks old) received a subcutaneous implantation of 3 million PANC-1 cells. The mice were supplied with food and water for 14 days before treatment began. […] Every two weeks each mouse's body weight and tumor volume was measured.

Panc-1 = assay: Cell cycle distribution by flow cytometry, PANC-1; format: cell-based, human; conditions: 10 μM, 48 hours
Method: as §1

Structure (SMILES) | inhibition of geranylgeranylation of Rheb-CSVL (slowly migrating unprocessed band) [1] | Percent G2/M, MiaPaCa2 (MiaPaCa2 [2]; DMSO 14.12) | Percent G0/G1, MiaPaCa2 (MiaPaCa2 [2]; DMSO 77.85) | IC50 (HPAC) | cell cycle effect in MCF-7 (MCF-7 cells) | mobility shift of H-Ras (protein farnesylation) [3] | IC50 (MiaPaCa2 [4]) | IC50 (CFpac-1) | PANC-1 xenograft tumor growth (PANC-1 xenograft tumor) | Percent G2/M, PANC-1 (Panc-1; DMSO 24.21) | Percent G0/G1, PANC-1 (Panc-1; DMSO 42.08)
Cc1ccccc1S(=O)(=O)N1[C@@H](c2cccc(Cl)c2)C(C(=O)O)=CC[C@H]1c1ccc(Cl)cc1 [P3-E5] | inhibits geranylgeranylation in cells | – | – | – | – | – | – | – | – | – | –
Cc1ccccc1S(=O)(=O)N1C(c2ccc(Cl)cc2)C(C(=O)NC(Cc2ccccc2)C(N)=O)=CC1C(C)(C)C (centres unmarked) [P61-A6] | – | 10.81% | 87.98% | 3.9 µM | dose-dependent enrichment of G1 phase cells | no such mobility shift | 4.7 µM | 6.3 µM | almost complete inhibition | 19.81% | 54.13%

From patent US8815935B2, “Inhibitors of protein prenyltransferases” (The Regents of the University of California, priority 2008, dated 2014)
